Patent publication US10125134B2 (Mirati Therapeutics, Inc., priority 2016, dated 2018)
Structures can show the parent of a compound that is named as a salt. Where two headings read alike, the source gives them in different places.

How the values were obtained:
[1] = target: KRas G12C (Homo sapiens, UniProt P01116, C118S/C51S/C80L/G12C); assay: KRas G12C Modification Assay (LCMS detection of covalent adduct); format: binding; conditions: normalized percent of control; tested at 5 μM concentration for 3 hours
Method in brief: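 Covalent modification was read by reverse-phase LC/MS of intact protein after compound exposure, each reaction stopped at its time point with 25 mM acetic acid. Unmodified-protein signal, taken as percent of total, was normalised to untreated protein and reported as POC.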

[2] = system: NCI-H358 cells (express KRas G12C), Phospho-ERK; assay: Cellular inhibition of KRas G12C: Phospho-ERK in NCI-H358 cells; format: cell-based; conditions: pERK(Thr202/Tyr204) normalized with GAPDH, NCI-H358 cells, 3 hours, read-out: IC50
Method in brief: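 IC50 derived by 4-parameter fit of GAPDH-normalized pERK(Thr202/Tyr204) signal, as percent of DMSO control. Signal came from in-cell immunodetection with infrared secondaries after 3 h compound exposure of KRas G12C NCI-H358 cells at 0.5% DMSO.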

POC [1] | SMILES | IC50 ([2]; Homo sapiens, NCI-H358, 3 h) [nM] | IC50 ([2]; Homo sapiens) [nM] | IC50 [2] [nM]
C (“C”>50% POC) | C=CC(=O)N1CCN(c2nc(OC[C@@H]3CCCN3C)nc3c2CCN(c2cccc(F)c2C)C3)CC1CC#N (stereo partly drawn) [Example 410, 2-(1-acryloyl-4-(7-(3-fluoro-2-methylphenyl)-2-(((S)-1-methylpyrrolidin-2-yl)methoxy)-5,6,7,8-tetrahydropyrido[3,4-d]pyrimidin-4-yl)piperazin-2-yl)acetonitrile] | 0.1 to 1000 |  | 
C (“C”>50% POC) | C=CC(=O)N1CCN(c2nc(OC[C@@H]3CCCN3C)nc3c2CCN(c2cc(O)cc4ccccc24)C3)[C@@H](C)C1 [Example 202, 1-((S)-4-(7-(3-hydroxynaphthalen-1-yl)-2-(((S)-1-methylpyrrolidin-2-yl)methoxy)-5,6,7,8-tetrahydropyrido[3,4-d]pyrimidin-4-yl)-3-methylpiperazin-1-yl)prop-2-en-1-one] | 0.1 to 1000 |  | 
C (“C”>50% POC) | C=CC(=O)N1CCN(c2nc(OC[C@@H]3CCN(C)C3)nc3c2CCN(c2c(C(F)(F)F)ccc4[nH]ncc24)C3)CC1CC#N (stereo partly drawn) [Example 313, 2-[4-[2-[[(3R)-1-methylpyrrolidin-3-yl]methoxy]-7-[5-(trifluoromethyl)-1H-indazol-4-yl]-6,8-dihydro-5H-pyrido[3,4-d]pyrimidin-4-yl]-1-prop-2-enoyl-piperazin-2-yl]acetonitrile] |  | 0.1 to 1000 | 
C (“C”>50% POC) | C=CC(=O)N1CCN(c2nc(O[C@H](C)[C@H]3CCCN3C)nc3c2CCN(c2cc(O)cc4ccccc24)C3)CC1 [Example 129, 1-[4-[7-(3-hydroxy-1-naphthyl)-2-[(1R)-1-[(2R)-1-methylpyrrolidin-2-yl]ethoxy]-6,8-dihydro-5H-pyrido[3,4-d]pyrimidin-4-yl]piperazin-1-yl]prop-2-en-1-one] | 0.1 to 1000 |  | 
C (“C”>50% POC) | C=CC(=O)N1CCN(c2nc(OCC(C)(C)N(C)C)nc3c2CCN(c2cccc4ccccc24)C3)CC1CC#N (stereo not drawn) [Example 269, 2-(1-acryloyl-4-(2-(2-(dimethylamino)-2-methylpropoxy)-7-(naphthalen-1-yl)-5,6,7,8-tetrahydropyrido[3,4-d]pyrimidin-4-yl)piperazin-2-yl)acetonitrile] | 0.1 to 1000 |  | 
A (“A”≤25% POC) | C=CC(=O)N1CCN(c2nc(OCCCN3CCOCC3)nc3c2CCN(c2ccc(O)cc2OC(F)(F)F)C3)CC1 [Example 106, 1-(4-(7-(4-hydroxy-2-(trifluoromethoxy)phenyl)-2-(3-morpholinopropoxy)-5,6,7,8-tetrahydropyrido[3,4-d]pyrimidin-4-yl)piperazin-1-yl)prop-2-en-1-one] |  | > 1000 | 
C (“C”>50% POC) | C=CC(=O)N1CCN(c2nc(OC[C@H]3CCCN3C)nc3c2CCN(c2ccccc2C(F)(F)F)C3)CC1CC#N (stereo partly drawn) [Example 299, 2-[4-[2-[[(2R)-1-methylpyrrolidin-2-yl]methoxy]-7-[2-(trifluoromethyl)phenyl]-6,8-dihydro-5H-pyrido[3,4-d]pyrimidin-4-yl]-1-prop-2-enoyl-piperazin-2-yl]acetonitrile] |  |  | 0.1 to 1000
C (“C”>50% POC) | C=CC(=O)N1CCN(c2nc(OC[C@@H]3CCCN3C)nc3c2CCN(c2cccc4ccccc24)C3)CC1COC (stereo partly drawn) [Example 256, 1-(2-(methoxymethyl)-4-(2-(((S)-1-methylpyrrolidin-2-yl)methoxy)-7-(naphthalen-1-yl)-5,6,7,8-tetrahydropyrido[3,4-d]pyrimidin-4-yl)piperazin-1-yl)prop-2-en-1-one] | > 1000 |  | 
C (“C”>50% POC) | C=CC(=O)N1CCN(c2nc(OC[C@@H]3CCCN3C)nc3c2CCN(c2ccccc2CC(F)(F)F)C3)CC1CC#N (stereo partly drawn) [Example 374, 2-(1-acryloyl-4-(2-(((S)-1-methylpyrrolidin-2-yl)methoxy)-7-(2-(2,2,2-trifluoroethyl)phenyl)-5,6,7,8-tetrahydropyrido[3,4-d]pyrimidin-4-yl)piperazin-2-yl)acetonitrile] |  |  | > 1000
C (“C”>50% POC) | C=CC(=O)N1CCN(c2nc(O[C@@H](C)[C@@H]3CCCN3C)nc3c2CCN(c2cc(O)cc4ccccc24)C3)CC1 [Example 130, 1-(4-(7-(3-hydroxynaphthalen-1-yl)-2-((S)-1-((S)-1-methylpyrrolidin-2-yl)ethoxy)-5,6,7,8-tetrahydropyrido[3,4-d]pyrimidin-4-yl)piperazin-1-yl)prop-2-en-1-one] | 0.1 to 1000 |  | 
B (“B”>25% POC−≤50% POC) | C=CC(=O)N1CCN(c2nc(OCCN3CCC(F)C3)nc3c2CCN(c2cc(O)cc4ccccc24)C3)CC1 (stereo not drawn) [Example 49, 1-(4-(2-(2-(3-fluoropyrrolidin-1-yl)ethoxy)-7-(3-hydroxynaphthalen-1-yl)-5,6,7,8-tetrahydropyrido[3,4-d]pyrimidin-4-yl)piperazin-1-yl)prop-2-en-1-one] | > 1000 |  | 
C (“C”>50% POC) | C=CC(=O)N1C[C@@H](C)N(c2nc(OC[C@@H]3CCCN3C)nc3c2CCN(c2cccc4ccccc24)C3)C[C@@H]1CC#N [Example 378, 2-((2S,5R)-1-acryloyl-5-methyl-4-(2-(((S)-1-methylpyrrolidin-2-yl)methoxy)-7-(naphthalen-1-yl)-5,6,7,8-tetrahydropyrido[3,4-d]pyrimidin-4-yl)piperazin-2-yl)acetonitrile] | 0.1 to 1000 |  | 
C (“C”>50% POC) | C=CC(=O)N1CCN(c2nc(OCCN3CCC[C@H](F)C3)nc3c2CCN(c2cc(O)cc4ccccc24)C3)CC1 [Example 111, (S)-1-(4-(2-(2-(3-fluoropiperidin-1-yl)ethoxy)-7-(3-hydroxynaphthalen-1-yl)-5,6,7,8-tetrahydropyrido[3,4-d]pyrimidin-4-yl)piperazin-1-yl)prop-2-en-1-one] | 0.1 to 1000 |  | 
C (“C”>50% POC) | C=CC(=O)N1CCN(c2nc(OCCCN3C[C@@H]4C[C@H]3CO4)nc3c2CCN(c2cccc4cccc(C)c24)C3)C[C@@H]1CC#N [Example 369, 2-((S)-4-(2-(3-((1 S,4S)-2-oxa-5-azabicyclo[2.2.1]heptan-5-yl)propoxy)-7-(8-methylnaphthalen-1-yl)-5,6,7,8-tetrahydropyrido[3,4-d]pyrimidin-4-yl)-1-acryloylpiperazin-2-yl)acetonitrile] | 0.1 to 1000 |  | 
C (“C”>50% POC) | C=CC(=O)N1CCN(c2nc(OCCN(C)C)nc3c2CC(C)N(c2cc(O)cc4ccccc24)C3)CC1 (stereo not drawn) [Example 48, 1-(4-(2-(2-(dimethylamino)ethoxy)-7-(3-hydroxynaphthalen-1-yl)-6-methyl-5,6,7,8-tetrahydropyrido[3,4-d]pyrimidin-4-yl)piperazin-1-yl)prop-2-en-1-one trifluoroacetate] |  | > 1000 | 
C (“C”>50% POC) | C=CC(=O)N1CCN(c2nc(OC[C@@H]3CCCN3C)nc3c2CCN(c2cccc4cccc(C)c24)C3)C[C@@H]1CC#N [Example 359, 2-((S)-1-acryloyl-4-(7-(8-methylnaphthalen-1-yl)-2-(((S)-1-methylpyrrolidin-2-yl)methoxy)-5,6,7,8-tetrahydropyrido[3,4-d]pyrimidin-4-yl)piperazin-2-yl)acetonitrile] | 0.1 to 1000 |  | 
C (“C”>50% POC) | C/C=C/C(=O)N1CCN(c2nc(OC[C@@H]3CCCN3C)nc3c2CCN(c2cccc4cccc(C)c24)C3)C[C@@H]1CC#N [Example 372, 2-((S)-1-((E)-but-2-enoyl)-4-(7-(8-methylnaphthalen-1-yl)-2-(((S)-1-methylpyrrolidin-2-yl)methoxy)-5,6,7,8-tetrahydropyrido[3,4-d]pyrimidin-4-yl)piperazin-2-yl)acetonitrile] | 0.1 to 1000 |  | 
A (“A”≤25% POC) | C=CC(=O)N1CCN(c2nc(OCCCN3CCOCC3)nc3c2CCN(c2cc(O)ccc2OC(C)C)C3)CC1 [Example 96, 1-(4-(7-(5-hydroxy-2-isopropoxyphenyl)-2-(3-morpholinopropoxy)-5,6,7,8-tetrahydropyrido[3,4-d]pyrimidin-4-yl)piperazin-1-yl)prop-2-en-1-one] |  | > 1000 | 
C (“C”>50% POC) | C=CC(=O)N1CCN(c2nc(OC[C@@H]3CCCN3CCOC)nc3c2CCN(c2cccc4ccccc24)C3)CC1CC#N (stereo partly drawn) [Example 380, 2-(1-acryloyl-4-(2-(((S)-1-(2-methoxyethyl)pyrrolidin-2-yl)methoxy)-7-(naphthalen-1-yl)-5,6,7,8-tetrahydropyrido[3,4-d]pyrimidin-4-yl)piperazin-2-yl)acetonitrile] |  |  | 0.1 to 1000
C (“C”>50% POC) | C=CC(=O)N1CCN(c2nc(OCc3ncc[nH]3)nc3c2CCN(c2cccc4ccccc24)C3)C[C@@H]1CC#N [Example 351, 2-[(2S)-4-[2-(1H-imidazol-2-ylmethoxy)-7-(1-naphthyl) -6,8-dihydro-5H-pyrido[3,4-d]pyrimidin-4-yl]-1-prop-2-enoyl-piperazin-2-yl]acetonitrile] | 0.1 to 1000 |  | 

SMILES | POC [1] | IC50 ([2]; Homo sapiens, NCI-H358, 3 h) [nM] | IC50 ([2]; Homo sapiens) [nM] | IC50 [2] [nM]
C=CC(=O)N1CCN(c2nc(OC[C@@H]3CCCN3C)nc3c2CCN(c2ccccc2C(C)C)C3)CC1 [Example 158, 1-[4-[7-(2-isopropylphenyl)-2-[[(2S)-1-methylpyrrolidin-2-yl]methoxy]-6,8-dihydro-5H-pyrido[3,4-d]pyrimidin-4-yl]piperazin-1-yl]prop-2-en-1-one] | C (“C”>50% POC) |  | > 1000 | 
